According to patent US12527779B2, “Prostaglandin E2 (PGE2) EP4 receptor antagonists” (Domain Therapeutics, priority 2019, dated 2026):
Where a name gives a salt, the structure may show the parent alone.

Target: T1, human EP4 (hEP4) receptor (Homo sapiens, UniProt P35408)
T1 construct: expressed in transfected cells; host or cells: HEK-293 T cells, transient co-transfection with polyethylenimine
Assay: In vitro human EP4 functional antagonist activity using BRET biosensors (cAMP EPAC biosensor, TCS2510 stimulation)
Format: cell-based
Details: antagonist activity vs EC60 TCS2510, hEP4 in HEK-293 T cells
Method in brief: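 Antagonism measured as inhibition of EC60 TCS2510-induced cAMP BRET signal (EPAC luciferase/GFP sensor) in transiently hEP4-expressing HEK-293T cells, following 5 min compound preincubation and 10 min luminescence recording. Plates equilibrated 1 h at 22 °C in HEPES buffer; 10 concentrations over 4.5 logs, duplicate in two independent experiments, sigmoidal variable-slope IC50.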

T1 sequence (P35408 whole entry): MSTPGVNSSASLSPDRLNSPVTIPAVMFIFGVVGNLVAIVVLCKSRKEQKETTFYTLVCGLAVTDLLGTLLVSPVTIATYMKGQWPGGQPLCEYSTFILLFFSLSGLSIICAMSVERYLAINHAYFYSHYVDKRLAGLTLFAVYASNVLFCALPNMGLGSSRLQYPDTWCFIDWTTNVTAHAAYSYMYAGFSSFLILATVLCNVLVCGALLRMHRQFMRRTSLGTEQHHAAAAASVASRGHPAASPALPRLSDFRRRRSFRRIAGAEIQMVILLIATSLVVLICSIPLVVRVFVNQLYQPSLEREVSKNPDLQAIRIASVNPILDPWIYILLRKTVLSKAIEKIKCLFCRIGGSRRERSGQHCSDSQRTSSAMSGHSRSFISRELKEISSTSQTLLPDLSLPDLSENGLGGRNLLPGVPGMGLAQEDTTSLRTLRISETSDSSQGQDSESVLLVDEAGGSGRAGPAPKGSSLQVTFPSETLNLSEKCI

Row | Compound | IC50 [nM]
1 | C[C@H](NC(=O)C1(N2CC[C@@H](Oc3cccc(F)c3)C2)CCOCC1)c1ccc(C(=O)O)cc1 [Example 142, 4-[(1S)-1-[[4-[(3R)-3-(3-Fluorophenoxy)pyrrolidin-1-yl]tetrahydropyran-4-carbonyl]amino]ethyl]benzoic acid, hydrochloride] | < 100
2 | O=C(O)c1ccc(C2(NC(=O)C3(N4CC[C@@H](Oc5cccc(F)c5)C4)CCOCC3)CC2)cc1 [Example 143, 4-[1-[[4-[(3R)-3-(3-Fluorophenoxy)pyrrolidin-1-yl]tetrahydropyran-4-carbonyl]amino]cyclopropyl]benzoic acid, hydrochloride] | < 100
3 | C[C@H](NC(=O)C1(N2CC[C@@H](Oc3cccc(C(F)(F)F)c3)C2)CCOCC1)c1ccc(C(=O)O)cc1 [Example 144, 4-[(1S)-1-[[4-[(3R)-3-[3-(Trifluoromethyl)phenoxy]pyrrolidin-1-yl]tetrahydropyran-4-carbonyl]amino]ethyl]benzoic acid, hydrochloride] | < 100
4 | O=C(O)c1ccc(C2(NC(=O)C3(N4CC[C@@H](Oc5cccc(C(F)(F)F)c5)C4)CCOCC3)CC2)cc1 [Example 145, 4-[1-[[4-[(3R)-3-[3-(Trifluoromethyl)phenoxy]pyrrolidin-1-yl]tetrahydropyran-4-carbonyl]amino]cyclopropyl]benzoic acid, hydrochloride] | < 100
5 | C[C@H](NC(=O)C1(N2CC[C@@H](Oc3cccc(OC(F)(F)F)c3)C2)CCOCC1)c1ccc(C(=O)O)cc1 [Example 146, 4-[(1S)-1-[[4-[(3R)-3-[3-(Trifluoromethoxy)phenoxy]pyrrolidin-1-yl]tetrahydropyran-4-carbonyl]amino]ethyl]benzoic acid, hydrochloride] | < 100
6 | O=C(O)c1ccc(C2(NC(=O)C3(N4CC[C@@H](Oc5cccc(OC(F)(F)F)c5)C4)CCOCC3)CC2)cc1 [Example 147, 4-[1-[[4-[(3R)-3-[3-(Trifluoromethoxy)phenoxy]pyrrolidin-1-yl]tetrahydropyran-4-carbonyl]amino]cyclopropyl]benzoic acid, hydrochloride] | < 100
7 | COc1cccc(O[C@@H]2CCN(C3(C(=O)N[C@@H](C)c4ccc(C(=O)O)cc4)CCOCC3)C2)c1 [Example 148, 4-[(1S)-1-[[4-[(3R)-3-(3-Methoxyphenoxy)pyrrolidin-1-yl]tetrahydropyran-4-carbonyl]amino]ethyl]benzoic acid, hydrochloride] | < 100
8 | COc1cccc(O[C@@H]2CCN(C3(C(=O)NC4(c5ccc(C(=O)O)cc5)CC4)CCOCC3)C2)c1 [Example 149, 4-[1-[[4-[(3R)-3-(3-Methoxyphenoxy)pyrrolidin-1-yl]tetrahydropyran-4-carbonyl]amino]cyclopropyl]benzoic acid, hydrochloride] | < 100
9 | Cc1cccc(O[C@@H]2CCN(C3(C(=O)N[C@@H](C)c4ccc(C(=O)O)cc4)CCOCC3)C2)c1 [Example 150, 4-[(1S)-1-[[4-[(3R)-3-(3-Methylphenoxy)pyrrolidin-1-yl]tetrahydropyran-4-carbonyl]amino]ethyl]benzoic acid, hydrochloride] | < 100
10 | Cc1cccc(O[C@@H]2CCN(C3(C(=O)NC4(c5ccc(C(=O)O)cc5)CC4)CCOCC3)C2)c1 [Example 151, 4-[1-[[4-[(3R)-3-(3-Methylphenoxy)pyrrolidin-1-yl]tetrahydropyran-4-carbonyl]amino]cyclopropyl]benzoic acid, hydrochloride] | < 100
11 | C[C@H](NC(=O)C1(N2CC[C@@H](Oc3ccccc3)C2)CCOCC1)c1ccc(C(=O)O)cc1 [Example 152, 4-[(1S)-1-[[4-((3R)-3-Phenoxypyrrolidin-1-yl)tetrahydropyran-4-carbonyl]amino]ethyl]benzoic acid, hydrochloride] | < 100
12 | O=C(O)c1ccc(C2(NC(=O)C3(N4CC[C@@H](Oc5ccccc5)C4)CCOCC3)CC2)cc1 [Example 153, 4-[1-[[4-((3R)-3-Phenoxypyrrolidin-1-yl)tetrahydropyran-4-carbonyl]amino]cyclopropyl]benzoic acid, hydrochloride] | < 100
13 | C[C@H](NC(=O)C1(N2CC[C@@H](OC3CCCCC3)C2)CCOCC1)c1ccc(C(=O)O)cc1 [Example 154, 4-[(1S)-1-[[4-[(3R)-3-(Cyclohexyloxy]pyrrolidin-1-yl]tetrahydropyran-4-carbonyl]amino]ethyl]benzoic acid, hydrochloride] | < 100
14 | C[C@H](NC(=O)C1(N2CC[C@@H](Oc3cccc(Cl)c3)C2)CCCCC1)c1ccc(C(=O)O)cc1 [Example 155, 4-[(1S)-1-[[1-[(3R)-3-(3-Chlorophenoxy)pyrrolidin-1-yl]cyclohexane-1-carbonyl]amino]ethyl]benzoic acid, hydrochloride] | < 100
15 | C[C@H](NC(=O)C1(N2CC[C@@H](Oc3cccc(Cl)c3)C2)CCC(F)(F)CC1)c1ccc(C(=O)O)cc1 [Example 156, 4-[(1S)-1-[[1-[(3R)-3-(3-Chlorophenoxy)pyrrolidin-1-yl]-4,4-difluorocyclohexane-1-carbonyl]amino]ethyl]benzoic acid, hydrochloride] | < 100
16 | C[C@H](NC(=O)C1(N2CC[C@@H](Oc3cccc(Cl)c3)C2)CCCC1)c1ccc(C(=O)O)cc1 [Example 157, 4-[(1S)-1-[[1-[(3R)-3-(3-Chlorophenoxy)pyrrolidin-1-yl]cyclopentane-1-carbonyl]amino]ethyl]benzoic acid, hydrochloride] | < 100

Row | Compound | IC50 [nM]
17 | C[C@H](NC(=O)C1(N2CC[C@@H](Oc3cccc(Cl)c3)C2)CCC1)c1ccc(C(=O)O)cc1 [Example 159, 4-[(1S)-1-[[1-[(3R)-3-(3-Chlorophenoxy)pyrrolidin-1-yl]cyclobutane-1-carbonyl]amino]ethyl]benzoic acid, hydrochloride] | < 100
18 | C[C@H](NC(=O)C1(N2CC[C@@H](Oc3cccc(Cl)c3)C2)CC1)c1ccc(C(=O)O)cc1 [Example 160, 4-[(1S)-1-[[1-[(3R)-3-(3-Chlorophenoxy)pyrrolidin-1-yl]cyclopropane-1-carbonyl]amino]ethyl]benzoic acid, hydrochloride] | < 100
19 | C[C@H](NC(=O)C(C)(C)N1CC[C@@H](Oc2cccc(Cl)c2)C1)c1ccc(C(=O)O)cc1 [Example 161, hydrochloride] | < 100
20 | C[C@H](NC(=O)C1(N2CC[C@@H](Oc3cccc(C(F)(F)F)c3)C2)CCCCC1)c1ccc(C(=O)O)cc1 [Example 162, 4-[(1S)-1-[[1-[(3R)-3-[3-(Trifluoromethyl)phenoxy]pyrrolidin-1-yl]cyclohexane-1-carbonyl]amino]ethyl]benzoic acid, hydrochloride] | < 100
21 | C[C@H](NC(=O)C1(N2CC[C@@H](Oc3cccc(C(F)(F)F)c3)C2)CCC(F)(F)CC1)c1ccc(C(=O)O)cc1 [Example 163, 4-[(1S)-1-[[1-[(3R)-3-[3-(Trifluoromethyl)phenoxy]pyrrolidin-1-yl]-4,4-difluorocyclohexane-1-carbonyl]amino]ethyl]benzoic acid, hydrochloride] | < 100
22 | C[C@H](NC(=O)C1(N2CC[C@@H](Oc3cccc(C(F)(F)F)c3)C2)CCCC1)c1ccc(C(=O)O)cc1 [Example 164, 4-[(1S)-1-[[1-[(3R)-3-[3-Trifluoromethyl)phenoxy]pyrrolidin-1-yl]cyclopentane-1-carbonyl]amino]ethyl]benzoic acid, hydrochloride] | < 100
23 | C[C@H](NC(=O)C1(N2CC[C@@H](Oc3cccc(C(F)(F)F)c3)C2)CCC1)c1ccc(C(=O)O)cc1 [Example 165, 4-[(1S)-1-[[1-[(3R)-3-[3-(Trifluoromethyl)phenoxy]pyrrolidin-1-yl]cyclobutane-1-carbonyl]amino]ethyl]benzoic acid, hydrochloride] | < 100
24 | C[C@H](NC(=O)C(C)(C)N1CC[C@@H](Oc2cccc(C(F)(F)F)c2)C1)c1ccc(C(=O)O)cc1 [Example 167, hydrochloride] | < 100
25 | C[C@H](NC(=O)C1(N2CC[C@@H](Oc3cccc(C(F)(F)F)c3)C2)CCOCC1)c1ccc(C(N)=O)cc1 [Example 168, 4-[(1S)-1-[[4-[(3R)-3-[3-(Trifluoromethyl)phenoxy]pyrrolidin-1-yl]tetrahydropyran-4-carbonyl]amino]ethyl]benzamide, hydrochloride] | < 100
26 | CNC(=O)c1ccc([C@H](C)NC(=O)C2(N3CC[C@@H](Oc4cccc(C(F)(F)F)c4)C3)CCOCC2)cc1 [Example 169, hydrochloride] | < 100
27 | C[C@H](NC(=O)C1(N2CC[C@@H](Oc3cccc(C(F)(F)F)c3)C2)CCOCC1)c1ccc(C(=O)N(C)C)cc1 [Example 170, 4-[(1S)-1-[[4-[(3R)-3-[3-(Trifluoromethyl)phenoxy]pyrrolidin-1-yl]tetrahydropyran-4-carbonyl]dimethylamino]ethyl]benzamide, hydrochloride] | < 100
28 | C[C@H](NC(=O)C1(N2CC[C@@H](Oc3cccc(C(F)(F)F)c3)C2)CCC1)c1ccc(C(N)=O)cc1 [Example 171, 4-[(1S)-1-[[1-[(3R)-3-[3-(Trifluoromethyl)phenoxy]pyrrolidin-1-yl]cyclobutane-1-carbonyl]amino]ethyl]benzamide, hydrochloride] | < 100
29 | C[C@H](NC(=O)C1(N2CC[C@@H](Oc3cccc(Cl)c3)C2)CCC1)c1ccc(C(N)=O)cc1 [Example 172, 4-[(1S)-1-[[1-[(3R)-3-(3-Chlorophenoxy)pyrrolidin-1-yl]cyclobutane-1-carbonyl]amino]ethyl]benzamide, hydrochloride] | < 100
30 | C[C@H](NC(=O)C(C)(C)N1CC[C@@H](Oc2cccc(C(F)(F)F)c2)C1)c1ccc(C(N)=O)cc1 [Example 173, 4-[(1S)-1-[[2-[(3R)-3-[3-(Trifluoromethyl)phenoxy]pyrrolidin-1-yl]-2-methylpropane-carbonyl]amino]ethyl]benzamide, hydrochloride] | < 100
31 | C[C@H](NC(=O)C(C)(C)N1CC[C@@H](Oc2cccc(Cl)c2)C1)c1ccc(C(N)=O)cc1 [Example 174, hydrochloride] | < 100
